Among the data in patent US20180282281A1, “IMMUNOREGULATORY AGENTS” (FLEXUS BIOSCIENCES, INC., priority 2014, published 2018) are IC50 values, retold here.

The target of this experiment is T1, human IDO1 (Homo sapiens, UniProt P14902).
T1 construct: expressed in transfected cells
Description: HEK293 human IDO1 cell-based IDO inhibition assay. The conditions noted are these: read-out: HEK Human IDO-1 Potency. The gist of the method: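 HEK293 cells stably expressing human IDO1, 10,000/well in RPMI with 10% FBS, treated with compound 20 h at 37 °C. Stopped with 0.2% final TCA, 50 °C for 30 min; supernatant mixed with 0.2% Ehrlich reagent in acetic acid, 30 min RT, absorbance read at 490 nm.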

Where two headings read alike, the source gives them in different places.

T1 sequence (P14902 whole entry): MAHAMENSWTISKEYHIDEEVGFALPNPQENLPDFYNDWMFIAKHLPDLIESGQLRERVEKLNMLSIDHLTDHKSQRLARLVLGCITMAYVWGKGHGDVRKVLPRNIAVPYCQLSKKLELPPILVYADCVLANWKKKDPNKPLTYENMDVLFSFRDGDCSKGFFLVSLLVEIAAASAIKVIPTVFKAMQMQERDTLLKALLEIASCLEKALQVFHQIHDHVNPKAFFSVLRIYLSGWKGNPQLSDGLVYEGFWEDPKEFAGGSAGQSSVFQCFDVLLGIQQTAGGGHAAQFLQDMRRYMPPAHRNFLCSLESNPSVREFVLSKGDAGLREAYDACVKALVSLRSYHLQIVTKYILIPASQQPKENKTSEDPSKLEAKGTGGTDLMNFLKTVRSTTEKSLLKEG

In the case of `CC(C(=O)Nc1ccccc1)N1CCN(c2ccnc3ccc(F)cc23)CC1` (racemic) [Example 128, (±)-2-(4-(6-Fluoroquinolin-4-yl)piperazin-1-yl)-N-phenylpropanamide], the IC50 is more than 250 nM. The same measure, in the same setting: for `C[C@@H](C(=O)NC1CC2CCC1C2)[C@H]1CC[C@@H](c2ccnc3ccc(F)cc32)CC1` (stereo partly drawn) [Example 240, (2R)-N-((2S)-bicyclo[2.2.1]heptan-2-yl)-2-(cis-4-(6-fluoroquinolin-4-yl)cyclohexyl)propanamide] the value was less than 250 nM. Consider “N-(4-chlorophenyl)-2-(trans-4-(6-fluoroquinolin-4-yl)-1-hydroxycyclohexyl) propanamide [Example 230]”, for which, where the note is “HEK293 cells stably expressing human IDO1, 20 hours incubation, absorbance at 490 nm (Ehrlich reagent), 500 nM reference standard = 100% inhibition”, the IC50 is less than 250 nM.

Take `C[C@@H](C(=O)Nc1ccc(Cl)cc1O)[C@H]1CC[C@@H](c2ccnc3ccc(F)cc32)CC1` [Example 238, (R)-N-(4-chloro-2-hydroxyphenyl)-2-(cis-4-(6-fluoroquinolin-4-yl)cyclohexyl)propanamide]: the IC50 is less than 50 nM. On the same count and under the same terms, for `CCC(C(=O)Nc1ccc(Cl)cc1)C1CCN(c2ccnc3ccc(F)cc23)CC1` (racemic) [Example 243, (±)—N-(4-Chlorophenyl)-2-(1-(6-fluoroquinolin-4-yl)piperidin-4-yl)butanamide] the value was more than 250 nM; for `C[C@@H](C(=O)Nc1ccc(Cl)cc1)[C@H]1CC[C@@H](c2ccnc3ccnn32)CC1` (single isomer, unassigned) [Example 144b], more than 250 nM; for `CC(C(=O)Nc1ccc(Cl)cc1)N1CCC(Oc2ccnc3ccc(F)cc23)CC1` (racemic) [Example 96, (±)—N-(4-Chlorophenyl)-2-(4-((6-fluoroquinolin-4-yl)oxy)piperidin-1-yl)propanamide], less than 50 nM.

As for `Cc1cc(F)ccc1NC(=O)[C@H](C)[C@H]1CC[C@@H](c2ccnc3ccc(F)cc32)CC1` [Example 59, (R)-N-(4-fluoro-2-methylphenyl)-2-((cis)-4-(6-fluoroquinolin-4-yl)cyclohexyl)propanamide], the IC50 was more than 250 nM. Same read-out and setting: for `C[C@@H](C(=O)Nc1ccc(Cl)cc1)[C@H]1CC[C@@H](c2ccnc3c2ncn3C)CC1` (single isomer, unassigned) [Example 251c, N-(4-chlorophenyl)-2-(4-(3-methyl-3H-imidazo[4,5-b]pyridin-7-yl)cyclohexyl)propanamide] the value was less than 50 nM; for `CC(C(=O)O)c1ccc(C[C@@H](C(=O)Nc2ccc(C#N)cc2)[C@H]2CC[C@@H](c3ccnc4ccc(F)cc43)CC2)cc1` (stereo partly drawn) [Example 140, 2-(4-((R)-3-((4-Cyanophenyl)amino)-2-((cis)-4-(6-fluoroquinolin-4-yl)cyclohexyl)-3-oxopropyl)phenyl)propanoic Acid], less than 50 nM. Still for that read-out and setting: as for `C[C@@H](C(=O)Nc1ccc(Cl)cc1)[C@H]1CC[C@H](c2ccnc3ccnn32)CC1` (single isomer, unassigned) [Example 144d], the figure is more than 250 nM. On the same count and under the same terms, for `C[C@@H](C(=O)Nc1ccc(C(F)(F)F)cc1)[C@H]1CC[C@@H](c2ccnc3ccc(F)cc32)CC1` [Example 60, (R)-2-((cis)-4-(6-fluoroquinolin-4-yl)cyclohexyl)-N-(4-(trifluoromethyl)phenyl)propanamide] the value was less than 50 nM. Take `C[C@H](C(=O)Nc1ccc(Cl)cc1)[C@H]1CC[C@H](c2ccnc3ccnn32)CC1` (single isomer, unassigned) [Example 144c]: the IC50 is less than 250 nM.

With `COC(=O)c1ccc(NC(=O)[C@H](C)[C@H]2CC[C@@H](c3ccnc4ccc(F)cc43)CC2)cc1` [Example 68, methyl 4-((R)-2-((cis)-4-(6-fluoroquinolin-4-yl)cyclohexyl)propanamido)benzoate], the IC50 is less than 50 nM. The same measure, in the same setting: for `CC1(CC(=O)Nc2cncnc2)CCN(c2ccnc3ccc(F)cc23)CC1` [Example 122] the value was more than 250 nM; for `CC(C(=O)Nc1ccc(Cl)cc1)C1CCC(c2ccnc3cn[nH]c23)CC1` (racemic) [Example 149, (±)-2-(Cis- and trans-4-(1H-pyrazolo[4,3-b]pyridin-7-yl)cyclohexyl)-N-(4-chlorophenyl)propanamide], less than 50 nM. On to `CC1(CC(=O)Nc2ccc(F)cc2)CCN(c2ccnc3ccc(F)cc23)CC1` [Example 120, N-(4-Fluorophenyl)-2-(1-(6-fluoroquinolin-4-yl)-4-methylpiperidin-4-yl)acetamide], for which the IC50 is more than 250 nM. Still for that read-out and setting: as for `Cc1ccc(NC(=O)CC2(C)CCN(c3ccnc4ccc(F)cc34)CC2)cc1` [Example 121], the figure is more than 250 nM. Turning to `CCCC(C(=O)Nc1ccc(Cl)cc1)N1CCN(c2ccnc3ccc(F)cc23)CC1` (racemic) [Example 244, (±)—N-(4-Chlorophenyl)-2-(4-(6-fluoroquinolin-4-yl)piperazin-1-yl)pentanamide], the IC50 is less than 250 nM.

For the compound `CC(C(=O)O)c1ccc(C[C@@H](C(=O)Nc2ccc(Cl)cc2)[C@H]2CC[C@@H](c3ccnc4ccc(F)cc43)CC2)cc1` (mixture of isomers) [Example 137, 2-(4-((R)-3-((4-Chlorophenyl)amino)-2-((cis)-4-(6-fluoroquinolin-4-yl)cyclohexyl)-3-oxopropyl)phenyl)propanoic Acid], the IC50 was less than 50 nM.

For `CC(C(=O)Nc1ccc(F)cc1)N1CCC(Oc2ccnc3ccc(F)cc23)CC1` (single isomer, unassigned) [compound 105], the IC50 is less than 50 nM. Still for that read-out and setting: for `CC(C(=O)Nc1ccc(Cl)cc1)C1CCC(c2ccnc3ccnn23)CC1` (racemic) [Example 143, (±)—N-(4-chlorophenyl)-2-(cis- and trans-4-(pyrazolo[1,5-a]pyrimidin-7-yl)cyclohexyl)propanamide] the value was less than 250 nM. On the same count and under the same terms, for `C[C@H](C(=O)Nc1ccc(Cl)cc1)[C@H]1CC[C@H](c2ccnc3ccc(I)cc32)CC1` (single isomer, unassigned) [Example 152c] the value was less than 250 nM; for `Cc1cc(Cl)ccc1NC(=O)CC1CCN(c2ccnc3ccc(F)cc23)CC1` [Example 119], more than 250 nM; for `CCCC(C(=O)Nc1ccc(Cl)cc1)N1CCN(c2ccnc3ccc(F)cc23)CC1` (single isomer, unassigned) [Example 246, N-(4-Chlorophenyl)-2-(4-(6-fluoroquinolin-4-yl)piperazin-1-yl)pentanamide], more than 250 nM. The same measure, in the same setting: as for `CCC(C(=O)Nc1ccc(Cl)cc1)[C@H]1CC[C@H](Oc2ccnc3cc(C(F)(F)F)ccc23)CC1` (single isomer, unassigned) [Example 83b, N-(4-Chlorophenyl)-2-((trans)-4-((7-(trifluoromethyl)quinolin-4-yl)oxy)cyclohexyl)-2-butanamide], the figure is less than 250 nM; as for `CCOc1ccc(NC(=O)[C@H](C)[C@H]2CC[C@@H](c3ccnc4ccc(F)cc43)CC2)cc1` [Example 78, (R)-N-(4-ethoxyphenyl)-2-((cis)-4-(6-fluoroquinolin-4-yl)cyclohexyl)propanamide], less than 50 nM. Consider `C[C@@H](C(=O)Nc1ccc(Cl)cc1)[C@H]1CC[C@@H](c2ccnc3c2ncn3C)CC1` (single isomer, unassigned) [Example 251a, N-(4-chlorophenyl)-2-(4-(3-methyl-3H-imidazo[4,5-b]pyridin-7-yl)cyclohexyl)propanamide], for which the IC50 is less than 50 nM. Consider `CC(C(=O)Nc1ccc(Cl)cc1)C1CCC(c2ccnc3ncccc23)CC1` (racemic) [Example 147, (±)-2-(Cis- and trans-4-(1,8-naphthyridin-4-yl)cyclohexyl)-N-(4-chlorophenyl)propanamide], for which the IC50 was less than 50 nM. Still for that read-out and setting: for `CCCC(C(=O)Nc1ccc(Cl)cc1)N1CCN(c2ccnc3ccc(F)cc23)CC1` (single isomer, unassigned) [Example 245, N-(4-Chlorophenyl)-2-(4-(6-fluoroquinolin-4-yl)piperazin-1-yl)pentanamide] the value was less than 250 nM. Turning to `C[C@@H](C(=O)Nc1ccc(Cl)cc1)[C@H]1CC[C@@H](c2ccnc3c2ncn3C)CC1` (single isomer, unassigned) [Example 251b, N-(4-chlorophenyl)-2-(4-(3-methyl-3H-imidazo[4,5-b]pyridin-7-yl)cyclohexyl)propanamide], the IC50 is more than 250 nM. The same measure, in the same setting: for `CC1(CC(=O)Nc2ccc(Cl)cc2)CCN(c2ccnc3ccc(F)cc23)CC1` [Example 123] the value was less than 50 nM. Same read-out and setting: for `C[C@@H](C(=O)Nc1ccc(Oc2ccccc2)cc1)[C@H]1CC[C@@H](c2ccnc3ccc(F)cc32)CC1` [Example 71, (R)-2-((cis)-4-(6-fluoroquinolin-4-yl)cyclohexyl)-N-(4-phenoxyphenyl)propanamide] the value was less than 50 nM; for `O=C(CC1CCN(c2ccnc3ccc(F)cc23)CC1)Nc1ccc(Cl)cc1` [Example 116], more than 250 nM.
